{
  "source": "patent US6566371B2",
  "about": "“Intraperitoneal administration of adenosine for the treatment of prevention of gastrointestinal of systemic diseases” (University of Pittsburgh, priority 2000, dated 2003)",
  "key": {"[1]": {"settings": "rat, in vivo", "description": "(§1) In all the examples adult male Sprague-Dawley rats were purchased from Charles River Laboratories (Wilmington, Mass.) and maintained in the University of Pittsburgh Animal Facility (Pittsburgh, Pa.). Rats were provided free access to Prolab Isopro RMH 3000 rodent diet (PMI Nutrition Intl., Richmond, Ind.) and tap water. Light cycle, relative humidity and room temperature were 7:00 AM to 7:00 PM, 55% and 22° C., respectively. Animals weighed 357±11 (mean±SEM) grams at the time of study.\n(§2) Rats (n=5) were anesthetized and body temperature monitored and maintained as described for Example 1. The trachea was cannulated with PE-240 and a PE-50 catheter was inserted into the right jugular vein and an intravenous infusion of 0.9% saline was initiated at 50 μl/min. A femoral artery catheter (PE-50) was inserted and was connected to a digital blood pressure analyzer for continuous measurement of MABP and heart rate. Next, microdialysis probes (CMA/20 microdialysis probe 4 mm, Bioanalytical Systems, Inc., West Lafayette, Ind.) were inserted into the aortic arch (via the left carotid artery) and mesenteric vein. Microdialysis probes were perfused with 0.9% saline at 2 μl/min, and the dialysate exiting the probes was collected in a freezing apparatus. As in Example 1, a basin was constructed from the abdominal wall to create a bowl containing the viscera. However, unlike Example 1, instead of intermittent lavage with fresh solutions, the abdominal basin was continuously perfused with Tyrode's solution (5 ml/min) (Mi, Z., et al., J. Pharmacol. Exp. Ther. 287:926 (1998), the disclosure of which is incorporated herein by reference) that was maintained at 37° C. by a heated water bath. Thus, the viscera were submerged completely in Tyrode's solution that was constantly being replaced. After a 20-minute stabilization period, dialysate from the microdialysis probes was collected for 20 minutes. Next, the Tyrode's solution perfusing the peritoneal cavity was switched to prewarmed Tyrode's containing 10^−5 M adenosine (Sigma). After 10 minutes, the dialysate was collected for another 20 minutes. This procedure was repeated two more times as the concentration of adenosine was increased to 10^−4 M and finally to 10^−3 M. To determine whether AMP would behave as a “prodrug” for the delivery of adenosine, after a 20 minute washout period, the entire protocol was repeated with AMP (10^−5 M, 10^−4 M and 10^−3 M) (Sigma).\n(§3) Statistical Analysis: Data were analyzed in this example by repeated measures 1-factor analysis of variance. […] Statistical analyses were conducted with NCSS software (Version 6.0; Kaysville, Utah), and the criterion of significance was p<0.05.\n(§4) Sample Analysis: Levels of adenosine and its metabolites, inosine, hypoxanthine and xanthine, in the dialysate samples in this example were measured using an Isco (Lincoln, Nebr.) high-pressure liquid chromatographic system (pump model 2350, gradient programmer model 2360, 4.6×250-mm C18 column) with UV detection as described by Mi, Z., et al., J. Pharmacol. Exp. Ther. 273:728 (1995). The chromatography data system was JCL 6000 for Windows (Jones Chromatography LTD., Lakewood, Colo.)."}, "[2]": {"system": "rats subjected to hemorrhagic shock", "assay": "Hemorrhagic shock and resuscitation with continuous peritoneal lavage (Example 3)", "type": "in vivo, Sprague-Dawley rats", "method": "The methods of the present invention are illustrated in more detail below. […] In a second study, microdialysis probes were placed in the mesenteric vein and aortic arch of rats, and the peritoneal cavity was continuously ravaged with adenosine or AMP solutions. In a third study, rats were subjected to hemorrhagic shock (2.75 ml of blood removed per 100 grams of body weight over a 15 minute period) for two hours, followed by volume resuscitation for one hour and observation for 72 hours. Rats received peritoneal lavage with adenosine or vehicle (0.9% saline) beginning 20 minutes after blood withdrawal and continuing through the one hour resuscitation period.\nHemorrhagic shock was induced by removing 2.75 ml of blood per 100 grams of body weight over a 15 minute period. Two hours after blood withdrawal, the animals were resuscitated by reinfusing the withdrawn blood and restoring and maintaining a normal blood pressure for one hour by infusing Ringer's solution (Baxter, Deerfield, Ill.) as needed. Beginning 20 minutes after blood withdrawal and continuing for one hour after reinfusion of the withdrawn blood, rats received either continuous peritoneal lavage with adenosine (10^−4 M) or 0.90% saline."}, "[3]": {"system": "anesthetized rats with mesenteric vasoconstriction induced by angiotensin II plus methoxamine", "assay": "Intraperitoneal lavage with adenosine during intramesenteric artery infusion of angiotensin II plus methoxamine (Example 1)", "type": "in vivo, Sprague-Dawley rats"}, "[4]": {"assay": "Microdialysis of mesenteric vein and aortic arch during continuous peritoneal lavage with adenosine or AMP (Example 2)", "description": "as §1, §2, §3, §4"}, "[5]": {"settings": "continuous peritoneal lavage with adenosine 10^-4 M"}, "[6]": {"settings": "Group 2, period 7, 10^-3 M adenosine in peritoneal lavage fluid"}, "[7]": {"settings": "continuous peritoneal lavage with 10^-3 M"}},
  "note": "Where two headings read alike, the source gives them in different places.",
  "data": [
    {"smiles": "Nc1ncnc2c1ncn2[C@@H]1O[C@H](CO)[C@@H](O)[C@H]1O", "note": "[adenosine]", "values": [
      {"measurement": "adenosine level in dialysate exiting mesenteric vein microdialysis catheter", "setting": "[1]; male, Sprague-Dawley", "result": "2.17 ± 0.60", "unit": "µM"},
      {"measurement": "hypoxanthine level in dialysate exiting mesenteric vein microdialysis catheter", "setting": "[1]; male, Sprague-Dawley", "result": "0.18 ± 0.04", "unit": "µM"},
      {"measurement": "inosine level in dialysate exiting mesenteric vein microdialysis catheter", "setting": "[1]; male, Sprague-Dawley", "result": "1.03 ± 0.32", "unit": "µM"},
      {"measurement": "xanthine level in dialysate exiting mesenteric vein microdialysis catheter", "setting": "[1]; male, Sprague-Dawley", "result": "0.26 ± 0.06", "unit": "µM"},
      {"measurement": "MABP", "setting": "[1]", "result": "108±4", "unit": "mm Hg"},
      {"measurement": "heart rate", "setting": "[1]", "result": "362±14", "unit": "beats/min"},
      {"measurement": "levels of adenosine, inosine, hypoxanthine or xanthine in the aorta (dialysate)", "setting": "[1]", "result": "did not significantly alter"},
      {"measurement": "levels of adenosine, inosine, hypoxanthine or xanthine in the mesenteric vein (dialysate)", "setting": "[1]", "result": "did not significantly alter"},
      {"measurement": "arterial pH vs vehicle-treated group", "setting": "[2]; [5]", "result": "significantly (p<0.05) higher"},
      {"measurement": "blood urea nitrogen vs vehicle-treated group", "setting": "[2]; [5]", "result": "significantly (p<0.05) lower"},
      {"measurement": "plasma level of lactate vs vehicle-treated group", "setting": "[2]; [5]", "result": "significantly (p<0.05) lower"},
      {"measurement": "plasma level of potassium vs vehicle-treated group", "setting": "[2]; [5]", "result": "significantly (p<0.05) lower"},
      {"measurement": "survival to 72 hours", "setting": "[2]; continuous peritoneal lavage with adenosine 10^-4 M, vehicle 4 of 10, p<0.05", "result": "9 of 10"},
      {"measurement": "MABP and heart rate vs vehicle-treated group", "setting": "[2]; during hemorrhagic shock and resuscitation, adenosine 10^-4 M lavage", "result": "similar"},
      {"measurement": "heart rate", "setting": "[3]; Group 2, increasing adenosine 10^-7 to 10^-3 M in lavage", "result": "not significantly different among the seven experimental periods"},
      {"measurement": "MBF compared with period 1 (no infusion, no adenosine)", "setting": "[3]; [6]", "result": "not significantly different than the MBF during period 1"},
      {"measurement": "MBF compared with period 2 (vasoconstrictors, no adenosine)", "setting": "[3]; [6]", "result": "significantly greater than the MBF during period 2"},
      {"measurement": "mesenteric blood flow (MBF)", "setting": "[3]; Group 2, periods 3-6, adenosine 10^-7 M to 10^-4 M in peritoneal lavage fluid, intermittent lavage", "result": "remained significantly depressed"},
      {"measurement": "heart rate (bradycardia)", "setting": "[3]; Group 3, 10^-3 M adenosine in peritoneal lavage fluid", "result": "did not cause bradycardia"},
      {"measurement": "MABP", "setting": "[3]; Group 3, 10^-3 M adenosine, period 4 and period 5", "result": "very slight and transient increase"},
      {"measurement": "MBF compared with period 1", "setting": "[3]; Group 3, by period 7, fixed 10^-3 M adenosine in peritoneal lavage fluid", "result": "no longer significantly different compared with experimental period 1"},
      {"measurement": "MBF compared with period 2", "setting": "[3]; Group 3, periods 3-7, fixed 10^-3 M adenosine in peritoneal lavage fluid", "result": "significantly greater than MBF during period 2"},
      {"measurement": "mesenteric blood flow (summary)", "setting": "[3]; peritoneal lavage with adenosine, p<0.05", "result": "normalized mesenteric blood flow"}
    ]},
    {"smiles": "Nc1ncnc2c1ncn2[C@@H]1O[C@H](COP(=O)(O)O)[C@@H](O)[C@H]1O", "note": "[AMP, adenosine-5′-monophosphate]", "values": [
      {"measurement": "purine levels in the aorta", "setting": "[4]; [7]", "result": "not in the aorta"},
      {"measurement": "purine levels in the mesenteric vein", "setting": "[4]; [7]", "result": "increased purine levels in the mesenteric vein"},
      {"measurement": "MABP", "setting": "[4]; during 10^-3 M in continuous peritoneal lavage, basal 113±5 (adenosine), 112±4 (AMP), not significantly affected", "result": "117±7", "unit": "mm Hg"},
      {"measurement": "heart rate", "setting": "[4]; during 10^-3 M in continuous peritoneal lavage, basal 351±15 (adenosine), 357±17 (AMP), not significantly affected", "result": "366±22", "unit": "beats/min"}
    ]}
  ]
}
